Among the test systems are DMS 273 small cell lung; HOP-18 NSCLC; KM20L2 colon; SNB-78 CNS; M19-MEL melanoma; RXF-631 renal; P388 leukemia; P388/ADR leukemia; SN12K1 renal.
What all share (test): NCI tumour cell line growth inhibition, 48 h

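Five compound concentrations were applied to cells in 96-well plates for 48 hours; endpoints were derived by simple linear interpolation of the resulting dose-response curve. TGI denotes the concentration required for complete inhibition of growth.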 Some results are limits rather than exact numbers.

Consider `CC1CC2=C(S(=O)(=O)c3ccccc3)CC(S(=O)(=O)c3ccccc3)(S(=O)(=O)c3ccccc3)CC21` (centres undefined), for which the TGI in the assay on DMS 273 small cell lung, in the assay on HOP-18 NSCLC and in the assay on KM20L2 colon was greater than 100 µM in each case.
As for `O=C1c2ccsc2C(=O)c2sc(CO)cc21`, the TGI in the assay on DMS 273 small cell lung was 0.115 µM; in the assay on HOP-18 NSCLC, 0.113 µM; in the assay on KM20L2 colon, 0.352 µM; in the assay on SNB-78 CNS, 0.978 µM.
Take `C=C(C)[C@H]1Cc2c(ccc3c2O[C@@H]2COc4cc(OC)c(OC)cc4[C@@H]2C3=O)O1`: the TGI in the assay with DMS 273 small cell lung was 18.3 µM; in the assay on HOP-18 NSCLC it was greater than 89.7 µM; in the assay with M19-MEL melanoma, greater than 73 µM; in the assay with SNB-78 CNS, 45.3 µM.
Consider `O=c1cc(-c2ccc(Oc3ccccc3)cc2)[nH]c2cc3c(cc12)OCO3`, for which the TGI in the assay with DMS 273 small cell lung, in the assay with KM20L2 colon and in the assay with M19-MEL melanoma was greater than 100 µM each time.
In the case of `CCCCCCCCCCCC(=O)OCC(C[As](=O)(O)O)OC(=O)CCCCCCCCCCC` (centres undefined), the TGI was determined as 10.1 µM in the assay on DMS 273 small cell lung; 14.1 µM in the assay on HOP-18 NSCLC; 20 µM in the assay with KM20L2 colon; 15.8 µM with M19-MEL melanoma; 7.69 µM in the assay with SNB-78 CNS.
Consider `COc1ccc(S(=O)(=O)c2ccccc2[N+](=O)[O-])cc1`, for which the TGI in the assay on DMS 273 small cell lung, in the assay with HOP-18 NSCLC, with KM20L2 colon and with M19-MEL melanoma was greater than 100 µM in each case.
In the case of `COc1cc2cc3c4cc(OC)c(OC)cc4cc[n+]3c(C)c2cc1OC` (tested in a mixture with another compound), the TGI in the assay on DMS 273 small cell lung is greater than 100 µM; in the assay on HOP-18 NSCLC, greater than 100 µM; with KM20L2 colon it was greater than 100 µM; in the assay on M19-MEL melanoma, greater than 100 µM; in the assay on SNB-78 CNS, greater than 92.9 µM.
Turning to `Nc1nc([O-])c2c(n1)[n+](C1OC(CO)C(O)C1O)cn2CCO` (centres undefined), the TGI in the assay with DMS 273 small cell lung, in the assay on HOP-18 NSCLC, with KM20L2 colon, with M19-MEL melanoma, in the assay on RXF-631 renal and in the assay on SNB-78 CNS was greater than 100 µM each time.
On to `CN=C(SC)N(C)c1nc(=[N+](C)C)ss1`, for which the TGI in the assay on DMS 273 small cell lung is greater than 100 µM; in the assay on RXF-631 renal, 16.4 µM; in the assay on SNB-78 CNS, greater than 100 µM.
`CN(C)CC1CCCC(CN(C)C)C1OC(=O)c1ccccc1` (centres undefined): the TGI with DMS 273 small cell lung, with HOP-18 NSCLC, with KM20L2 colon, in the assay with M19-MEL melanoma and in the assay on SNB-78 CNS was greater than 100 µM in each case.
`C[Si](C)(C)OC1CC(=O)OC1n1cc(F)c(=O)[nH]c1=O` (centres undefined): the TGI with DMS 273 small cell lung, in the assay on HOP-18 NSCLC, in the assay with KM20L2 colon, in the assay with M19-MEL melanoma and with RXF-631 renal was greater than 100 µM throughout.
As to `CCOC(=O)CNC(=O)N(CC)C12CC3CC(CC(C3)C1)C2`, the TGI in the assay on DMS 273 small cell lung amounted to 315 µM; in the assay on HOP-18 NSCLC, 536 µM; with KM20L2 colon, 223 µM; in the assay on M19-MEL melanoma, 380 µM; in the assay with P388 leukemia, 260 µM; in the assay with P388/ADR leukemia, 421 µM. For the same compound, the TGI was 181 µM in the assay with SN12K1 renal and 474 µM in the assay with SNB-78 CNS.
On to `CCN(CC)C1CC(O[C@H]2C[C@](O)(C(=O)CO)Cc3c(O)c4c(c(O)c32)C(=O)c2c(OC)cccc2C4=O)OC(C)C1O` (some centres undefined), for which the TGI in the assay with DMS 273 small cell lung was determined as 0.161 µM; in the assay with KM20L2 colon it was 0.416 µM; with M19-MEL melanoma it was 0.167 µM; in the assay on RXF-631 renal, 11.9 µM; in the assay with SNB-78 CNS, 0.785 µM.
For `O=Cc1ccccc1COC(=O)c1cc(C(=O)OCc2ccccc2C=O)c(C(=O)OCc2ccccc2C=O)cc1C(=O)OCc1ccccc1C=O`, the TGI in the assay with DMS 273 small cell lung, with HOP-18 NSCLC, with KM20L2 colon, in the assay with M19-MEL melanoma and in the assay on SNB-78 CNS was greater than 100 µM throughout.
As for `CC1=CCC(O)C=CC(C)C(O)C(C)C=C(C)C(=O)c2c(O)c(C)cc3c2C(=O)C(N)=C(NC(=O)/C=C\C=C/C=CC(C)C(O)CC1=O)C3=O` (centres undefined), the TGI in the assay with DMS 273 small cell lung, in the assay with KM20L2 colon, in the assay with M19-MEL melanoma and with SNB-78 CNS was greater than 100 µM each time.

For the origin of these results see PubChem BioAssay (NCI).
